Data from patent EP0080819A1, “11-0-Alkylerythromycin A derivatives” (TAISHO PHARMACEUTICAL CO. LTD, priority 1981, dated 1983).

Tested on: Staphylococcus aureus Smith No. 4
Experiment: In vivo antibacterial activity (mouse protection test, number of surviving mice)
Conditions: oral, one hour after inoculation, male ddY mice, groups of 20, 10^7 cells per mouse, i.p., living mice for seven days after administration
Experimental: Male ddY mice weighing 20 - 23 g in groups 20 each were inoculated with Staphylococcus aureus Smith No. 4 (10^7 cells per mouse, i.p.). Erythromycin A was used as a control, the compound of formula I wherein R is methyl group("compound 1") was administered orally at one hour after inoculation, and the number of living mice for seven days after administration was calculated to determine the in vivo antibacterial activity.

| SMILES | In vivo Antibacterial Activity [The Number of Surviving Mice] (dose 0.5 mg/mouse) | In vivo Antibacterial Activity [The Number of Surviving Mice] (dose 1 mg/mouse) | In vivo Antibacterial Activity [The Number of Surviving Mice] (dose 2 mg/mouse) | In vivo Antibacterial Activity [The Number of Surviving Mice] (dose 4 mg/mouse) |
| --- | --- | --- | --- | --- |
| CC[C@H]1OC(=O)[C@H](C)[C@@H](O[C@H]2C[C@@](C)(OC)[C@@H](O)[C@H](C)O2)[C@H](C)[C@@H](O[C@@H]2O[C@H](C)C[C@H](N(C)C)[C@H]2O)[C@](C)(O)C[C@@H](C)C(=O)[C@H](C)[C@@H](OC)[C@]1(C)O [Compound 1, 11-0-methylerythromycin A] | 6 | 12 | 20 | 20 |
| CC[C@H]1OC(=O)[C@H](C)[C@@H](O[C@H]2C[C@@](C)(OC)[C@@H](O)[C@H](C)O2)[C@H](C)[C@@H](O[C@@H]2O[C@H](C)C[C@H](N(C)C)[C@H]2O)[C@](C)(O)C[C@@H](C)C(=O)[C@H](C)[C@@H](O)[C@]1(C)O [Erythromycin A] | 4 | 8 | 18 | 20 |
